What was measured:
NCI-H1581 [1] = assay: Antiproliferative activity against human NCI-H1581 cells after 72 hrs by CCK-8 assay; format: functional, cell-based; details: NCI-H1581, 72 h
[2] = biological target: Fibroblast growth factor receptor 1 (Homo sapiens, UniProt P11362); assay: Inhibition of recombinant human FGFR1 using poly (Glu,Tyr)4:1 as substrate incubated for 60 mins by ELISA
[3] = biological target: T1, Vascular endothelial growth factor receptor 2 (Homo sapiens, UniProt P35968); assay: Inhibition of recombinant human VEGFR2 using poly (Glu,Tyr)4:1 as substrate incubated for 60 mins by ELISA
T1 sequence (P35968 whole entry): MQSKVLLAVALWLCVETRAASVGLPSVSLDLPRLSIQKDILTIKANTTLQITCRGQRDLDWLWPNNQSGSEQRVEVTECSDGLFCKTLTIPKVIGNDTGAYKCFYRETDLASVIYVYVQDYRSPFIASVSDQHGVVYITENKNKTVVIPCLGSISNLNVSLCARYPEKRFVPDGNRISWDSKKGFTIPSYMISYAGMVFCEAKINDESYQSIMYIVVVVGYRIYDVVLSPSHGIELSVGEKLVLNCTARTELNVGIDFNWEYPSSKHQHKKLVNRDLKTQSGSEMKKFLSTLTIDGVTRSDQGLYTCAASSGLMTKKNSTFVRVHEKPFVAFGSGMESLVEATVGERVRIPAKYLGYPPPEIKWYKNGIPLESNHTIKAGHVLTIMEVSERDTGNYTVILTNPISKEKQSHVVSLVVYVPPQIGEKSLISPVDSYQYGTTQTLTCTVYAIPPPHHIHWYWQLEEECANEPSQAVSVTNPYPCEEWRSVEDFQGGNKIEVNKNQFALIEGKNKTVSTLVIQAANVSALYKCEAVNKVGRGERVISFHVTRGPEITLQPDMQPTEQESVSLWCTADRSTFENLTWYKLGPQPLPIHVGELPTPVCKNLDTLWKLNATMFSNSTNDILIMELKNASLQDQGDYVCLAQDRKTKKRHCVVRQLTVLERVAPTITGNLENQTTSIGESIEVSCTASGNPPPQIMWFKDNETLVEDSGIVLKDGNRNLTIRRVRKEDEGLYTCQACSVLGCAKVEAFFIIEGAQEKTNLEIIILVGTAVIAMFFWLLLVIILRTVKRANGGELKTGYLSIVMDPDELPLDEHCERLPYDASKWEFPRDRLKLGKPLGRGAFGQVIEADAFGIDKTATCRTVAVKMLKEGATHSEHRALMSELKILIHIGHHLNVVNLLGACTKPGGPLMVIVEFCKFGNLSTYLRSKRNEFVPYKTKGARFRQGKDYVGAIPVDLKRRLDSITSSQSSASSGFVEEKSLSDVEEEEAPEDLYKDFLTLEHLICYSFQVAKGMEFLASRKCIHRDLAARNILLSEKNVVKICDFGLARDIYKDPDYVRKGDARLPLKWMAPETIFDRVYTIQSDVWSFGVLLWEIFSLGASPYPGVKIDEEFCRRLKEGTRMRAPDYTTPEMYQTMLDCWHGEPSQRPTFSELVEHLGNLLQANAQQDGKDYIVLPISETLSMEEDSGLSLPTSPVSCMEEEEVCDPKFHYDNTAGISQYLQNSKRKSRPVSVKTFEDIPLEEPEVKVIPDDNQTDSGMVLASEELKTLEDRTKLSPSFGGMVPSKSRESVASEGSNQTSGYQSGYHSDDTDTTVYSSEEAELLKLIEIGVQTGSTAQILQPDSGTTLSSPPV

KG-1 = assay: Antiproliferative activity against human KG1 cells after 72 hrs by CCK-8 assay; format: functional, cell-based; details: KG-1, 72 h
NCI-H1581 [4] = details: Homo sapiens
Description: Antitumor activity against human NCI-H1581 cells xenografted in nude mouse assessed as tumor growth inhibition administered orally qd for 21 days

[5] = Toxicity in nude mouse xenografted with human NCI-H1581 cells assessed as body weight loss at 12.5 mg/kg, po qd administered for 21 days; format: organism-based; details: in vivo, 504 h
NCI-H1581 [6] = assay: Antitumor activity against human NCI-H1581 cells xenografted in nude mouse assessed as tumor growth inhibition at 50 mg/kg, po qd administered for 21 days; format: functional; details: 504 h, read-out: TGI
[7] = Toxicity in nude mouse xenografted with human NCI-H1581 cells assessed as body weight loss at 50 mg/kg, po qd administered for 21 days; format: organism-based; details: in vivo, 504 h
[8] = biological target: Fibroblast growth factor receptor 3 (Homo sapiens, UniProt P22607); assay: Inhibition of human FGFR3 using poly (Glu,Tyr)4:1 as substrate incubated for 60 mins by ELISA
Sequence of Fibroblast growth factor receptor 3 (P22607 whole entry): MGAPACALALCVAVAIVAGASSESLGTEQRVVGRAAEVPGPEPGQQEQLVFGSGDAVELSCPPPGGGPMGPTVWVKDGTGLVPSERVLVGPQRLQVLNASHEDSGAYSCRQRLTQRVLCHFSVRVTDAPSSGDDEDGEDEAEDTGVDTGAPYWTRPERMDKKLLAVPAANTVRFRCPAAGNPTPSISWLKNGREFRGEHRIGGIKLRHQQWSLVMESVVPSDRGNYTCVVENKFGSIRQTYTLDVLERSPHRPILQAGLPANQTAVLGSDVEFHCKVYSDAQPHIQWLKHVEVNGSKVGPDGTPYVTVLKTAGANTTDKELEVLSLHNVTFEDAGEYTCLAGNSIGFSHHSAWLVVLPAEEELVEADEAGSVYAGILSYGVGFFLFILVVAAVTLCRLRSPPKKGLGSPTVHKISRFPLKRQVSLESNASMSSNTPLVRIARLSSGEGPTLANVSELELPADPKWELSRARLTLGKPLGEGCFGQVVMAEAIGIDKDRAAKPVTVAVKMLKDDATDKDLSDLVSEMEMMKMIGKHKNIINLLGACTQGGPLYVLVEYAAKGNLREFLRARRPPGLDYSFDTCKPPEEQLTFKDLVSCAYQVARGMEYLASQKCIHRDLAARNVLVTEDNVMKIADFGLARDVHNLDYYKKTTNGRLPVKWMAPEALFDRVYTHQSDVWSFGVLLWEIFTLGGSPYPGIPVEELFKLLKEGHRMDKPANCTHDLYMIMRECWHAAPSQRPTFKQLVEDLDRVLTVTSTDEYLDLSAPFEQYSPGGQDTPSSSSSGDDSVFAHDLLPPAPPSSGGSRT

[9] = Protein binding in mouse plasma at 5 uM after 4 hrs by equilibrium dialysis assay; format: ADME, cell-free; details: read-out: PPB (converted)
[10] = Cmax in ICR mouse at 12.5 mg/kg administered as oral gavage by LC-MS/MS analysis; format: ADME, organism-based; set-up: dose 12.5 mg/kg, route oral; details: in vivo
RT-112 = assay: Antiproliferative activity against human RT112 cells after 72 hrs by CCK-8 assay; format: functional, cell-based; details: RT-112, 72 h
SNU-16 = assay: Antiproliferative activity against human SNU16 cells after 72 hrs by CCK-8 assay; format: functional, cell-based; details: SNU-16, 72 h
[11] = biological target: Fibroblast growth factor receptor 2 (Homo sapiens, UniProt P21802)
Sequence of Fibroblast growth factor receptor 2 (P21802 whole entry): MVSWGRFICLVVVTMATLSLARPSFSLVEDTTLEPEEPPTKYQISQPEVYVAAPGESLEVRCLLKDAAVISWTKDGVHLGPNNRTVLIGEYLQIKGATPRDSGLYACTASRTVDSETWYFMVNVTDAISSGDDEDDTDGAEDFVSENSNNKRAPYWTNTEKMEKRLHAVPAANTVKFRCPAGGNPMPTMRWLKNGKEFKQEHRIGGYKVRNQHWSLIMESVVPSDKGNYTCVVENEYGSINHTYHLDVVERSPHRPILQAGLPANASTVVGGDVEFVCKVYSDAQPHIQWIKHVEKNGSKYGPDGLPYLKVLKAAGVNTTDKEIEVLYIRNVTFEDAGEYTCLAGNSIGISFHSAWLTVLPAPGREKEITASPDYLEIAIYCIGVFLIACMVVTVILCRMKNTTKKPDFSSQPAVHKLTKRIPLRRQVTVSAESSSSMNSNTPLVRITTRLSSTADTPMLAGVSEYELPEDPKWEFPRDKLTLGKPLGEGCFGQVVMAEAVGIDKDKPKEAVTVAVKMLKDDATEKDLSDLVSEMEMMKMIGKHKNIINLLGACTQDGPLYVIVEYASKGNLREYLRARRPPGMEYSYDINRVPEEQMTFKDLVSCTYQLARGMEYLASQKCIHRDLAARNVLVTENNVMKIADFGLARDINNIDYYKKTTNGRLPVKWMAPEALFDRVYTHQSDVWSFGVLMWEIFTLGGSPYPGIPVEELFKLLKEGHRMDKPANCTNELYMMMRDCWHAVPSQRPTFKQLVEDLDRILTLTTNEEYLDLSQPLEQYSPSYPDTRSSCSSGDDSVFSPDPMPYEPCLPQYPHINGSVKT
Description: Inhibition of human FGFR2 using poly (Glu,Tyr)4:1 as substrate incubated for 60 mins by ELISA

[12] = AUC(0 to infinity) in ICR mouse at 12.5 mg/kg administered as oral gavage by LC-MS/MS analysis; format: ADME, organism-based; set-up: dose 12.5 mg/kg, route oral, time infinity; details: in vivo
[13] = Volume of distribution in ICR mouse at 2 mg/kg, iv by LC-MS/MS analysis; format: ADME, organism-based; details: in vivo
[14] = AUC(0 to infinity) in ICR mouse at 2 mg/kg, iv by LC-MS/MS analysis; format: ADME, organism-based; set-up: dose 2 mg/kg, time infinity, route intravenous; details: in vivo
NCI-H1581 [15] = assay: Antitumor activity against human NCI-H1581 cells xenografted in nude mouse assessed as tumor growth inhibition at 12.5 mg/kg, po qd administered for 21 days; format: functional; details: 504 h, read-out: TGI
[16] = Clearance in ICR mouse at 2 mg/kg, iv by LC-MS/MS analysis; format: ADME, organism-based; details: in vivo
[17] = Half life in ICR mouse at 12.5 mg/kg administered as oral gavage by LC-MS/MS analysis; format: ADME, organism-based; details: in vivo
[18] = Half life in ICR mouse at 2 mg/kg, iv by LC-MS/MS analysis; format: ADME, organism-based; details: in vivo
[19] = Antiproliferative activity against human KATO III cells after 72 hrs by CCK-8 assay; format: functional, cell-based
[20] = biological target: Fibroblast growth factor receptor 4 (Homo sapiens, UniProt P22455)
Sequence of Fibroblast growth factor receptor 4 (P22455 whole entry): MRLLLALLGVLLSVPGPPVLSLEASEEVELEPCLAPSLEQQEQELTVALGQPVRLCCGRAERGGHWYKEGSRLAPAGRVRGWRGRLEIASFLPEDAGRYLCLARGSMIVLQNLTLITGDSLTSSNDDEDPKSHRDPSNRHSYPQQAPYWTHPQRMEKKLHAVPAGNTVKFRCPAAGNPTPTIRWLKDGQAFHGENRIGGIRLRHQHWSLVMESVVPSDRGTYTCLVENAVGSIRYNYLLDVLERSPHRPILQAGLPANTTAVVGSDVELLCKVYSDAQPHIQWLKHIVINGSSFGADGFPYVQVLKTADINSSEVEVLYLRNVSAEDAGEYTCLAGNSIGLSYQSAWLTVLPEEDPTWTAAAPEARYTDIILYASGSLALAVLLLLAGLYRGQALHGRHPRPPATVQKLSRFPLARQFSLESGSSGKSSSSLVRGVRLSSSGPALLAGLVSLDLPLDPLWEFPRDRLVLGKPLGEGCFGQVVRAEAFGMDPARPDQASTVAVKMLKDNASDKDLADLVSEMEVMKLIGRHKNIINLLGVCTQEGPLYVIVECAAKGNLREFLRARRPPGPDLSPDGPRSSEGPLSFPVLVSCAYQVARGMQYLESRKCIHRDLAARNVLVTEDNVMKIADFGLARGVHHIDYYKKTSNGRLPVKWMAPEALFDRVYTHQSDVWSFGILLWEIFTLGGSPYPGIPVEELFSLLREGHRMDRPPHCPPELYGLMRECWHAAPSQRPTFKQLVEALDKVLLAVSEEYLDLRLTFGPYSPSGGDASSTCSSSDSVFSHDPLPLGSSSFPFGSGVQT
Description: Inhibition of human FGFR4 using poly (Glu,Tyr)4:1 as substrate incubated for 60 mins by ELISA

[21] = Oral bioavailability in ICR mouse at 12.5 mg/kg administered as gavage by LC-MS/MS analysis; format: ADME, organism-based; details: in vivo
[22] = Cmax in ICR mouse at 2 mg/kg, iv by LC-MS/MS analysis; format: ADME, organism-based; set-up: dose 2 mg/kg, route intravenous; details: in vivo
[23] = biological target: T1, Vascular endothelial growth factor receptor 2; assay: Inhibition of VEGFR2 (unknown origin) overexpressed in mouse NIH/ 3T3 cells incubated for 5 mins followed by stimulation with VEGF for 5 mins by immunoblotting analysis; format: cell-based

Sequence of Fibroblast growth factor receptor 1 (P11362 whole entry): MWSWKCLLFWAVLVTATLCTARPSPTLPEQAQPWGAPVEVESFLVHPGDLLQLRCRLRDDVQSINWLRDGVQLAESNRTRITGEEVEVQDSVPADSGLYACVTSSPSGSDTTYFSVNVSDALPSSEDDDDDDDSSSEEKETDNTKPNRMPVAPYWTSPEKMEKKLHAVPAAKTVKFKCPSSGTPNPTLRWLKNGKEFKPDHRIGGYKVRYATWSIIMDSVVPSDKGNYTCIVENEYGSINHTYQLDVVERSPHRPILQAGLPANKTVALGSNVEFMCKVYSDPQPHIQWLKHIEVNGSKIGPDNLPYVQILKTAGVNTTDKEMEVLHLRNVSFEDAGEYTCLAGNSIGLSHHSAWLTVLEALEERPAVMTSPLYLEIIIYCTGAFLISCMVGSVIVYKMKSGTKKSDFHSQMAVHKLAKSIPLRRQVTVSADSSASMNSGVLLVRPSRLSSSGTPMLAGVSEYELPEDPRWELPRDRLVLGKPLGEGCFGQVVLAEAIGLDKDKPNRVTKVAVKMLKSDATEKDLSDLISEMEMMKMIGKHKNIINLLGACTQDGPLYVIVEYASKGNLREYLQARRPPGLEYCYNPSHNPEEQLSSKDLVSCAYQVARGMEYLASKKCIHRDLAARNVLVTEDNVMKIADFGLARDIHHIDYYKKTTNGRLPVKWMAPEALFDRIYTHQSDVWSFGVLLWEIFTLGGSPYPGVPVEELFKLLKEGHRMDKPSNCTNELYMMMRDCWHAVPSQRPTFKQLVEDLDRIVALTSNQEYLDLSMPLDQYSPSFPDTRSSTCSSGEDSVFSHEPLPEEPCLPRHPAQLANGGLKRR

CCN1CCN(c2ccc(C(=O)Nc3n[nH]c4nc(-c5c(Cl)c(OC)cc(OC)c5Cl)ccc34)cc2)CC1
IC50 (NCI-H1581 [1]): 0.7 nM
IC50 [2]: 0.5 nM

COc1cc(OC)c(Cl)c(-c2ccc3c(NC(=O)c4ccc(N(C)CCN(C)C)cc4)n[nH]c3n2)c1Cl
IC50 (NCI-H1581 [1]): 11 nM
IC50 [2]: 3.9 nM

COc1cc(OC)c(Cl)c(-c2ccc3c(NC(=O)c4ccc(N5CCN(C)CC5)cn4)n[nH]c3n2)c1Cl
IC50 (NCI-H1581 [1]): 4.4 nM
IC50 [2]: 7.8 nM

COc1cc(OC)c(Cl)c(-c2ccc3c(NC(=O)c4ccc(N5CCN(C(C)C)CC5)cc4)n[nH]c3n2)c1Cl
IC50 (NCI-H1581 [1]): 1.4 nM
IC50 [2]: 1.4 nM

COc1cc(OC)c(Cl)c(-c2ccc3c(NC(=O)c4ccc(N5CCN(C)CC5)nc4)n[nH]c3n2)c1Cl
IC50 (NCI-H1581 [1]): 1.5 nM
IC50 [2]: 6.2 nM

COc1cc(OC)c(Cl)c(-c2ccc3c(NC(=O)c4ccc(N5CCCCC5)cc4)n[nH]c3n2)c1Cl
IC50 (NCI-H1581 [1]): 558 nM
IC50 [2]: 8.8 nM

COc1cc(OC)c(Cl)c(-c2ccc3c(NC(=O)c4ccc(N5CCN(C)CC5)s4)n[nH]c3n2)c1Cl
IC50 (NCI-H1581 [1]): 3.7 nM
IC50 [2]: 4.1 nM

COc1cc(OC)cc(-c2ccc3c(NC(=O)c4ccc(N5CCN(C)CC5)cc4)n[nH]c3n2)c1
IC50 (NCI-H1581 [1]): > 1000 nM
IC50 [2]: 3710 nM
IC50 [3]: 548 nM

COCCN1CCN(c2ccc(C(=O)Nc3n[nH]c4nc(-c5c(Cl)c(OC)cc(OC)c5Cl)ccc34)cc2)CC1
IC50 (KG-1): < 0.2 nM
TGI (NCI-H1581 [4]): Dose-dependent effect
Activity [5]: Non-Toxic
inhibition in vivo at 50 mg/kg (NCI-H1581 [6]): 100%
Activity [7]: Non-Toxic
IC50 [8]: 2 nM
fraction unbound at 4 h, 5 µM [9]: 0.004
IC50 (NCI-H1581 [1]): 0.7 nM
Cmax [10]: 1.65 µg/mL
IC50 (RT-112): < 0.2 nM
IC50 (SNU-16): < 0.2 nM
IC50 [2]: 0.3 nM
IC50 [11]: 0.7 nM
AUC(0-inf) [12]: 9.01 µg·h/mL
Vd [13]: 4.51 L/kg
AUC(0-inf) [14]: 2 µg·h/mL
inhibition in vivo at 12.5 mg/kg (NCI-H1581 [15]): 54%
clearance [16]: 0.998 L/h/kg
half-life [17]: 2.76 h
half-life [18]: 3.13 h
IC50 [19]: < 0.4 nM
IC50 [20]: 52.7 nM
bioavailability [21]: 72%
Cmax [22]: 0.826 µg/mL

COc1cc(OC)c(Cl)c(-c2ccc3c(NC(=O)c4ccc(N5CCN(CCO)CC5)cc4)n[nH]c3n2)c1Cl
fraction unbound at 4 h, 5 µM [9]: 0.005
IC50 (NCI-H1581 [1]): < 0.5 nM
Cmax [10]: 0.802 µg/mL
IC50 [2]: 0.3 nM
AUC(0-inf) [12]: 3.51 µg·h/mL
Vd [13]: 10 L/kg
AUC(0-inf) [14]: 1.08 µg·h/mL
clearance [16]: 1.86 L/h/kg
half-life [17]: 3.38 h
half-life [18]: 3.74 h
bioavailability [21]: 52.3%
Cmax [22]: 0.796 µg/mL

COc1cc(OC)c(Cl)c(-c2ccc3c(NC(=O)c4ccc(N5CCOCC5)cc4)n[nH]c3n2)c1Cl
IC50 (NCI-H1581 [1]): 865 nM
IC50 [2]: 7.7 nM

COc1cc(OC)c(Cl)c(-c2ccc3c(NC(=O)c4ccc(N5CCN(C)CC5)cc4)n[nH]c3c2)c1Cl
IC50 (NCI-H1581 [1]): 324 nM
IC50 [2]: 3.3 nM

COc1cc(OC)c(Cl)c(-c2ccc3c(NC(=O)c4ccc(N(C)C)cc4)n[nH]c3n2)c1Cl
IC50 (NCI-H1581 [1]): 294 nM
IC50 [2]: 16.5 nM

COc1cc(OC)c(Cl)c(-c2ccc3c(NC(=O)c4cnc(N5CCN(C)CC5)cn4)n[nH]c3n2)c1Cl
IC50 (NCI-H1581 [1]): 60.6 nM
IC50 [2]: 10.5 nM

COc1cc(N2CCN(C)CC2)ccc1C(=O)Nc1n[nH]c2nc(-c3c(Cl)c(OC)cc(OC)c3Cl)ccc12
IC50 (NCI-H1581 [1]): 525 nM
IC50 [2]: 74.4 nM

COc1cc(OC)c(Cl)c(-c2ccc3c(NC(=O)c4ccc(N5CCN(C)CC5)cc4)n[nH]c3n2)c1Cl
IC50 (NCI-H1581 [1]): 1.7 nM
IC50 [2]: 0.3 nM
IC50 [3]: 366 nM

COc1cc(OC)c(Cl)c(-c2ccc3c(NC(=O)c4ccc(C5CCN(C)CC5)cc4)n[nH]c3n2)c1Cl
IC50 (NCI-H1581 [1]): 8.2 nM
IC50 [2]: 6.9 nM

COc1cc(OC)c(Cl)c(-c2ccc3c(NC(=O)c4ccc(N5CCCN(C)CC5)cc4)n[nH]c3n2)c1Cl
fraction unbound at 4 h, 5 µM [9]: 0.004
IC50 (NCI-H1581 [1]): 1.3 nM
Cmax [10]: 0.5 µg/mL
IC50 [2]: 7.2 nM
AUC(0-inf) [12]: 4.62 µg·h/mL
Vd [13]: 5.43 L/kg
AUC(0-inf) [14]: 1.84 µg·h/mL
clearance [16]: 1.08 L/h/kg
half-life [17]: 2.9 h
half-life [18]: 3.47 h
bioavailability [21]: 40.2%
Cmax [22]: 0.87 µg/mL

COc1cc(OC)c(Cl)c(-c2ccc3c(NC(=O)c4ccc(N5CCN(S(C)(=O)=O)CC5)cc4)n[nH]c3n2)c1Cl
IC50 (NCI-H1581 [1]): 245 nM
IC50 [2]: 0.2 nM

COc1cc(OC)c(Cl)c(-c2ccc3c(NC(=O)c4ccc(N5CCN(C(C)=O)CC5)cc4)n[nH]c3n2)c1Cl
IC50 (NCI-H1581 [1]): 43.3 nM
IC50 [2]: 0.3 nM

COc1cc(OC)c(Cl)c(-c2ccc3c(NC(=O)c4ccc(N5CCN(C)CC5)cc4)nn(C)c3n2)c1Cl
IC50 [2]: > 5000 nM

COc1cc(CCc2cc(NC(=O)c3ccc(N4C[C@@H](C)N[C@@H](C)C4)cc3)n[nH]2)cc(OC)c1 [FEXAGRATINIB]
IC50 (KG-1): < 0.2 nM
fraction unbound at 4 h, 5 µM [9]: 0.007
IC50 (NCI-H1581 [1]): 37.9 nM
Cmax [10]: 1.35 µg/mL
IC50 (RT-112): 0.6 nM
IC50 (SNU-16): 1.2 nM
AUC(0-inf) [12]: 9.13 µg·h/mL
Vd [13]: 3.18 L/kg
AUC(0-inf) [14]: 2.08 µg·h/mL
inhibition in vivo at 12.5 mg/kg (NCI-H1581 [15]): 77.1%
clearance [16]: 0.963 L/h/kg
half-life [17]: 2.55 h
half-life [18]: 2.29 h
IC50 [19]: 20.2 nM
bioavailability [21]: 74.7%
Cmax [22]: 1.88 µg/mL

COc1cc(OC)c(Cl)c(-c2ccc3c(NC(=O)c4ccc(N)cc4)n[nH]c3n2)c1Cl
IC50 (NCI-H1581 [1]): 218 nM
IC50 [2]: 8.8 nM

C=CCN1CCN(c2ccc(C(=O)Nc3n[nH]c4nc(-c5c(Cl)c(OC)cc(OC)c5Cl)ccc34)cc2)CC1
IC50 (NCI-H1581 [1]): 3.3 nM
IC50 [2]: 0.6 nM

COc1cc(OC)c(Cl)c(-c2ccc3c(NC(=O)c4ccc(N5CCN(C)CC5)c(Cl)c4)n[nH]c3n2)c1Cl
IC50 (NCI-H1581 [1]): 191 nM
IC50 [2]: 14.5 nM

CCN(CC)CCCCNc1ncc2cc(-c3cc(OC)cc(OC)c3)c(NC(=O)NC(C)(C)C)nc2n1 [PD-173074]
IC50 [23]: 100 to 200 nM

COc1cc(OC)c(Cl)c(-c2ccc3c(NC(=O)c4ccc(N5CCN(C)CC5)cc4Cl)n[nH]c3n2)c1Cl
IC50 (NCI-H1581 [1]): 27.6 nM
IC50 [2]: 14 nM

COc1cc(C(=O)Nc2n[nH]c3nc(-c4c(Cl)c(OC)cc(OC)c4Cl)ccc23)ccc1N1CCN(C)CC1
IC50 (NCI-H1581 [1]): 15.6 nM
IC50 [2]: 14.2 nM

COc1cc(OC)c(Cl)c(-c2ccc3c(NC(=O)c4ccc(N5CCNCC5)cc4)n[nH]c3n2)c1Cl
IC50 (NCI-H1581 [1]): 1.4 nM
IC50 [2]: 11.7 nM

COc1cc(OC)c(Cl)c(-c2ccc3c(NC(=O)c4ccccc4)n[nH]c3n2)c1Cl
IC50 (NCI-H1581 [1]): > 1000 nM
IC50 [2]: 42.4 nM

COc1cc(OC)c(Cl)c(-c2ccc3c(NC(=O)c4ccc(N5CCN(C6CCC6)CC5)cc4)n[nH]c3n2)c1Cl
IC50 (NCI-H1581 [1]): 2.3 nM
IC50 [2]: 0.2 nM

— ChEMBL document CHEMBL4425121, “Discovery of Substituted 1H-Pyrazolo[3,4-b]pyridine Derivatives as Potent and Selective FGFR Kinase Inhibitors” (ACS Med Chem Lett, 2016)
